A short description of the series: Solubility of PAC and PAP in halogenated solvents (Table 1). It is filed as physicochemical. The following applies: for solubility in the particular halogenated solvents (in words): methylene chloride and trichloromethane. The text has this: The novel mechanism results in high conversion and yield under low temperature, low viscosity and internal system temperature control conditions. In addition, a very efficient product recovery can be obtained from the inorganic phase. Of course, the pressure should be such as to keep the system in the liquid phase.

On to `O=C(O)CCCCCN1C(=O)c2ccccc2C1=O` [PAC, ε-phthalimidohexanoic acid], for which the “solubility in the particular halogenated solvents (in words)” value is listed as “even more soluble”. Moreover, where the note is “Dichloromethane, at 14° C.”, the Solubility is listed as 51.1 g per 100 cm^3 of solvent. The Solubility (Dichloromethane, at 25° C.) is reported as 67.3 g per 100 cm^3 of solvent. Also, the Solubility (Trichloromethane, at 14° C.) is listed as 52.3 g per 100 cm^3 of solvent. In addition, the Solubility (Trichloromethane, at 25° C.) is listed as 67.9 g per 100 cm^3 of solvent.

With `O=C(CCCCCN1C(=O)c2ccccc2C1=O)OO` [PAP, ε-phthalimidoperhexanoic acid], the “solubility in the particular halogenated solvents (in words)” value was “soluble”. The Solubility (Dichloromethane, at 14° C.) was 26.3 g per 100 cm^3 of solvent. Moreover, the Solubility (Dichloromethane, at 25° C., (**) Estimated value) was 35.2 g per 100 cm^3 of solvent. Also, for the setting “Trichloromethane, at 14° C.”, the Solubility is 26.1 g per 100 cm^3 of solvent. The Solubility (Trichloromethane, at 25° C.) is reported as 34.9 g per 100 cm^3 of solvent.

Source of the values: US5208340A, “Process for producing an aryl-imido-peralkanoic acid by oxidizing the corresponding aryl-imido-alkanoic acid with hydrogen peroxide” (Ausimont S.p.A., priority 1990, dated 1993).
